Measurements published in ChEMBL document CHEMBL4014279, “Synthesis of novel pyrazolo[3,4-b]quinolinyl acetamide analogs, their evaluation for antimicrobial and anticancer activities, validation by molecular modeling and CoMFA analysis” (Eur J Med Chem, 2017).
≈ marks a conversion by molar mass, not a printed value. Calls of active or inactive are those of the source. The rule behind the calls is not given here.

Columns and labels:
Staphylococcus aureus [1] = assay: Antibacterial activity against Staphylococcus aureus MTCC 96 after 24 hrs by well diffusion method; type: functional; details: MTCC 96, 24 h
A549 [2] = assay: Cytotoxicity against human A549 cells at >100 uM after 24 hrs by MTT assay; type: functional, cell-based
Pseudomonas aeruginosa = assay: Antibacterial activity against Pseudomonas aeruginosa MTCC 2453 after 24 hrs by well diffusion method; type: functional; details: MTCC 2453, 24 h
Raoultella planticola = assay: Antibacterial activity against Klebsiella planticola MTCC 530 after 24 hrs by well diffusion method; type: functional; details: MTCC 530, 24 h
Escherichia coli [3] = assay: Antibacterial activity against Escherichia coli MTCC 739 after 24 hrs by well diffusion method; type: functional; details: MTCC 739, 24 h
Bacillus subtilis [4] = assay: Antibacterial activity against Bacillus subtilis MTCC 121 after 24 hrs by well diffusion method; type: functional; details: MTCC 121, 24 h
HepG2 [5] = assay: Cytotoxicity against human HepG2 cells at >100 uM after 24 hrs by MTT assay; type: functional, cell-based
HeLa [6] = assay: Cytotoxicity against human HeLa cells at >100 uM after 24 hrs by MTT assay; type: functional, cell-based
COLO 205 [7] = assay: Cytotoxicity against human COLO205 cells at >100 uM after 24 hrs by MTT assay; type: functional, cell-based
Staphylococcus aureus [8] = assay: Antibacterial activity against Staphylococcus aureus MLS16 MTCC 2940 after 24 hrs by well diffusion method; type: functional; details: MLS16 MTCC 2940, 24 h
Micrococcus luteus = assay: Antibacterial activity against Micrococcus luteus MTCC 2470 after 24 hrs by well diffusion method; type: functional; details: MTCC 2470, 24 h
Staphylococcus aureus [9] = assay: Induction of intracellular ROS accumulation in Staphylococcus aureus MLS16 MTCC 2940 sessile biofilm cells assessed as fluorescence intensity at 1 ug/ml after 24 hrs by DCFH-DA staining-based fluorescence assay (reference value: 62 +/- 9.8 a.u.); type: functional
Escherichia coli [10] = assay: Antibiofilm activity against Escherichia coli MTCC 739 after 24 hrs by crystal violet staining based method; type: functional; details: MTCC 739, 24 h
Staphylococcus aureus [11] = assay: Induction of intracellular ROS accumulation in Staphylococcus aureus MLS16 MTCC 2940 sessile biofilm cells assessed as fluorescence intensity at 4 ug/ml after 24 hrs by DCFH-DA staining-based fluorescence assay (reference value: 62 +/- 9.8 a.u.); type: functional
Staphylococcus aureus [12] = assay: Induction of intracellular ROS accumulation in Staphylococcus aureus MLS16 MTCC 2940 sessile biofilm cells assessed as fluorescence intensity at 3 ug/ml after 24 hrs by DCFH-DA staining-based fluorescence assay (reference value: 62 +/- 9.8 a.u.); type: functional
Staphylococcus aureus [13] = assay: Induction of intracellular ROS accumulation in Staphylococcus aureus MLS16 MTCC 2940 sessile biofilm cells assessed as fluorescence intensity at 2 ug/ml after 24 hrs by DCFH-DA staining-based fluorescence assay (reference value: 62 +/- 9.8 a.u.); type: functional
Bacillus subtilis [14] = assay: Antibiofilm activity against Bacillus subtilis MTCC 121 after 24 hrs by crystal violet staining based method; type: functional; details: MTCC 121, 24 h
HepG2 [15] = assay: Cytotoxicity against human HepG2 cells after 24 hrs by MTT assay; type: functional, cell-based; details: HepG2, 24 h
COLO 205 [16] = assay: Cytotoxicity against human COLO205 cells after 24 hrs by MTT assay; type: functional, cell-based; details: COLO 205, 24 h
HeLa [17] = assay: Cytotoxicity against human HeLa cells after 24 hrs by MTT assay; type: functional, cell-based
A549 [18] = assay: Cytotoxicity against human A549 cells after 24 hrs by MTT assay; type: functional, cell-based; details: A549, 24 h

Compound	MIC (Staphylococcus aureus [1])	MIC (Pseudomonas aeruginosa)	MIC (Raoultella planticola)	MIC (Escherichia coli [3])	MIC (Bacillus subtilis [4])	MIC (Staphylococcus aureus [8])	MIC (Micrococcus luteus)	IC50 (HepG2 [15])	IC50 (COLO 205 [16])	IC50 (HeLa [17])	IC50 (A549 [18])	also measured
O=C(Cn1nc(C(F)(F)F)c2c(-c3ccccc3)c3ccccc3nc21)NC1CC1	7.8 to 125 µg/mL (≈ 19 to 305 µM)	7.8 to 125 µg/mL (≈ 19 to 305 µM)	7.8 to 125 µg/mL (≈ 19 to 305 µM)	7.8 to 125 µg/mL (≈ 19 to 305 µM)	7.8 to 125 µg/mL (≈ 19 to 305 µM)	7.8 to 125 µg/mL (≈ 19 to 305 µM)	7.8 to 125 µg/mL (≈ 19 to 305 µM)					Activity (A549 [2]): inactive; Activity (HepG2 [5]): inactive; Activity (HeLa [6]): inactive; Activity (COLO 205 [7]): inactive
O=C(O)c1cn(C2CC2)c2cc(N3CCNCC3)c(F)cc2c1=O [CIPROFLOXACIN]	0.9 µg/mL (≈ 2.72 µM)	0.9 µg/mL (≈ 2.72 µM)	0.9 µg/mL (≈ 2.72 µM)	0.9 µg/mL (≈ 2.72 µM)	0.9 µg/mL (≈ 2.72 µM)	0.9 µg/mL (≈ 2.72 µM)	0.9 µg/mL (≈ 2.72 µM)					Flu intensity (Staphylococcus aureus [9]): 601 a.u.; IC50 (Escherichia coli [10]): 0.8 µM; Flu intensity (Staphylococcus aureus [11]): 2010 a.u.; Flu intensity (Staphylococcus aureus [12]): 1952 a.u.; Flu intensity (Staphylococcus aureus [13]): 925 a.u.; IC50 (Bacillus subtilis [14]): 0.6 µM
Cc1nn(CC(=O)NCc2ccco2)c2nc3ccccc3c(C)c12	7.8 to 125 µg/mL (≈ 23.3 to 374 µM)	7.8 to 125 µg/mL (≈ 23.3 to 374 µM)	7.8 to 125 µg/mL (≈ 23.3 to 374 µM)	7.8 to 125 µg/mL (≈ 23.3 to 374 µM)	7.8 to 125 µg/mL (≈ 23.3 to 374 µM)	7.8 to 125 µg/mL (≈ 23.3 to 374 µM)	7.8 to 125 µg/mL (≈ 23.3 to 374 µM)	13.2 µM	15.6 µM	14.4 µM	14.9 µM	
COc1ccc(NC(=O)Cn2nc(C)c3c(C)c4ccccc4nc32)cc1	7.8 to 125 µg/mL (≈ 21.6 to 347 µM)	7.8 to 125 µg/mL (≈ 21.6 to 347 µM)	7.8 to 125 µg/mL (≈ 21.6 to 347 µM)	7.8 to 125 µg/mL (≈ 21.6 to 347 µM)	7.8 to 125 µg/mL (≈ 21.6 to 347 µM)	7.8 to 125 µg/mL (≈ 21.6 to 347 µM)	7.8 to 125 µg/mL (≈ 21.6 to 347 µM)	22.2 µM	18.9 µM	20.4 µM	25.6 µM	
